Reference: article PMC9104508, “Antioxidant, Hypoglycemic and Molecular Docking Studies of Methanolic Extract, Fractions and Isolated Compounds from Aerial Parts of Cymbopogon citratus (DC.) Stapf” (Molecules, 2022)
Like-named read-outs stand apart in the source and are kept apart here. Marks after values point to notes of the source that are not given here.

Key:
[1] = test system: 3T3-L1 adipocytes; test: Glucose uptake in 3T3-L1 adipocytes; format: cell-based, mouse
Experimental: The 3T3-L1 preadipocytes were cultured and differentiated using the method described earlier with slight modifications. The 3T3-L1 preadipocytes were cultured in high glucose DMEM supplemented with 10% NBCS, 1% P/S, and then starved until the cells reached confluence (day 0). Two days later (day 2), the cells were induced for differentiation with high glucose DMEM supplemented with 10% FBS, 1% P/S, IBMX, DEX, Rosi, and insulin. On day 5, the medium was changed to high glucose DMEM containing 10% FBS, 1% P/S, and 100 nM insulin for one day (day 6). Then the cells were completely differentiated into mature adipocytes.
The glucose uptake test was carried out according to the procedure described in the paper. […] After 48 h of culture, the glucose uptake was measured according to the operating instructions of the glucose content determination kit. Following the glucose uptake test, the cell viability was determined using the CellTiter 96® aqueous cell proliferation test. […] Then the absorbance was measured using microplate reader at 490 nm after incubation at 37 °C for 4 h. The cell viability was calculated according to the following formula:Cell viability rate (%) = […] × 100 (3) A1 = the absorbance of the blank control, A2 = the absorbance of each fraction group, each compound group, or positive control group.

[2] = DPPH free radical scavenging assay; settings: compounds; 30 min, room temperature
Experimental: (§1) The antioxidant activities of the crude extracts and isolated compounds were evaluated by implementing 2,2-diphenyl-1-picrylhydrazyl free radical scavenging (DPPH^+), 2,2’-azino-bis (3-ethylbenzothiazoline-6-sulphonic free radical scavenging (ABTS^+), and the ferric reducing antioxidant power (FRAP) assay.
The DPPH^+ assay was measured according to the previous report with slight modifications. […] The DPPH^+ was dissolved with anhydrous methanol to 0.1 mM.
Then 180 μL DPPH solution and 20 μL sample were mixed in each well of a 96-well plate and incubated for 30 min at room temperature in the dark. […] Ascorbic acid was used as a positive control. The DPPH^+ scavenging activity was calculated according to the following formula:Inhibition (%) = [1 − (A1 − A2)/(A3 − A4)] × 100(1) A1 = absorbance of the sample group with DPPH, A2 = absorbance of the sample control group without DPPH, A3 = absorbance of the control group with DPPH, and A4 = the absorbance of the blank control.

[3] = ABTS free radical scavenging assay (commercial kit, Trolox standard); settings: compounds
Experimental: as §1
(§2) ABTS^+ and FRAP assays were measured by commercial assay kits (Suzhou Comin Biotechnology Co., Ltd., Suzhou, China). The experimental method was determined according to the method used in the literature. The crude extracts and chemical compounds were dissolved in anhydrous ethanol at concentrations of 800 μg/mL and 40 μM. […] Trolox was used as a standard reference compound to quantitate ABTS^+ and FRAP capacity. The results were expressed in µmol Trolox/g or mol Trolox/mol. The standard curve was drawn using Trolox solutions at a range of concentrations.

[4] = target: α-glucosidase (Saccharomyces cerevisiae, UniProt P53341); test: α-Glucosidase inhibition assay (pNPG substrate); format: biochemical; settings: for inhibition at 20 µM: read-out: α-Glucosidase Inhibitory Rate
Sequence of α-glucosidase (P53341 whole entry): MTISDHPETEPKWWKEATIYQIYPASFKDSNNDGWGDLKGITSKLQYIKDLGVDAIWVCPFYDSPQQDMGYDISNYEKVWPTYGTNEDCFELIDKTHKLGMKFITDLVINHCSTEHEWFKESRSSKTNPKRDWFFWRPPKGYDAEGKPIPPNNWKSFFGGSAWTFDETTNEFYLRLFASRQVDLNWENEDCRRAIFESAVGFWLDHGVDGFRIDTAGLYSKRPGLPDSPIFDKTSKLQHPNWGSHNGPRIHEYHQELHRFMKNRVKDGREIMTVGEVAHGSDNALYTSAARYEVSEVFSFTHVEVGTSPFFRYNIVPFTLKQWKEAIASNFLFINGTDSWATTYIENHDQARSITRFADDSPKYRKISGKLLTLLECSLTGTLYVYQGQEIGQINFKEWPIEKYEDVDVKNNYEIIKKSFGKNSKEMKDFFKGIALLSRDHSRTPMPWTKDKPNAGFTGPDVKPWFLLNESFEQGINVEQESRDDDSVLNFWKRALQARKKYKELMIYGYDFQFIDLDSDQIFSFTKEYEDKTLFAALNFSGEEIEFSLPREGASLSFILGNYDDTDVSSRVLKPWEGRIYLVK
Experimental: The α-glucosidase inhibitory activity was measured according to the procedure described in the paper, with slight modifications. […] Immediately, 40 μL PNPG (2.5 mM) was added to each well and reacted at 37 °C for 30 min. […] The total volume of the reaction system was 200 μL. The α-glucosidase inhibition activity was calculated according to the following formula:Inhibition (%) = [1 − (A1 − A2)/(A3 − A4)] × 100(2) A1 = the absorbance of the sample group with α-glucosidase, A2 = the absorbance of the sample control group without α-glucosidase, A3 = the absorbance of the control group without samples, and A4 = the absorbance of the blank control without samples and α-glucosidase.
Results were expressed as IC50 values calculated according to Prism7.0 software.

[5] = Ferric reducing antioxidant power (FRAP) assay (commercial kit, Trolox standard); settings: compounds
Experimental: as §1, §2

Molecule	glucose uptake rates of 3T3-L1 adipocytes ([1]; positive control group versus control group, p < 0.001)	IC50 [2]	ABTS Assay, Trolox equivalents [3]	inhibition at 20 µM [4]	FRAP Assay, Trolox equivalents [5]	inhibition at 20 µM ([4]; at a concentration of 20 μM)	glucose uptake in 3T3-L1 adipocytes ([1]; compounds at 20 μM, 48 h, versus control)	α-Glucosidase Inhibitory Rate ([4]; at a concentration of 20 μM)
insulin	noticeably promoted	–	–	–	–	–	–	–
COc1cc(-c2cc(=O)c3c(O)cc(O)cc3o2)cc(OC)c1O [Compound 10, tricin]	–	> 80 µM	1.64 ± 0.14 ^e mol Trolox/mol	20.8 ± 7.3%	–	–	–	–
O=C(O)/C=C/c1ccc(O)c(O)c1 [Compound 5, caffeic acid]	–	7.41 ± 0.74 µM	2.15 ± 0.0619 ^abc mol Trolox/mol	–	1.73 ± 0.080 ^b mol Trolox/mol	< 50%	weak effect	–
COc1cc(/C=C/C(=O)OCC(O)CO)ccc1O (centres unmarked) [Compound 6, 1-O-feruloylglycerol]	–	> 80 µM	1.80 ± 0.0462 ^de mol Trolox/mol	–	0.012 ± 0.014 ^d mol Trolox/mol	5.3 ± 1.8%	–	–
O=C(O)/C=C/c1ccc(O)cc1 [Compound 4, p-coumaric acid]	–	> 80 µM	2.28± 0.10 ^ab mol Trolox/mol	< 50%	–	–	–	–
COc1cc(OC2OC(CO)C(O)C(O)C2O)cc(O)c1C(C)=O [Compound 2, 4-O-β-D-glucopyranosyl-2-hydroxy-6-methoxyacetophenone]	–	> 80 µM	0.87 ± 0.11 ^f mol Trolox/mol	–	–	22.6 ± 3.4%	–	–
O=c1cc(-c2ccc(O)c(O)c2)oc2cc(O[C@@H]3O[C@H](CO)[C@@H](O)[C@H](O)[C@H]3O)cc(O)c12 [Compound 12, luteolin-7-O-β-D-glucopyranoside]	–	7.28 ± 1.48 µM	1.86 ± 0.075 ^de mol Trolox/mol	21.9 ± 6%	1.31 ± 0.057 ^c mol Trolox/mol	–	–	–
O=C(/C=C/c1ccc(O)cc1)OCC(O)COC(=O)/C=C/c1ccc(O)c(O)c1 (centres unmarked) [Compound 8, 1-O-p-coumaroyl-3-O-caffeoylglycerol]	–	14.8 ± 1.83 µM	1.70 ± 0.066 ^e mol Trolox/mol	–	1.42 ± 0.073 ^c mol Trolox/mol	67%	–	–
COc1cc(O)cc(O)c1C(C)=O [Compound 1, 4,6-dihydroxy-2-methoxyacetophenone]	–	> 80 µM	2.40 ± 0.16 ^a mol Trolox/mol	–	–	< 50%	–	–
O=C1O[C@H]([C@@H](O)CO)C(O)=C1O [Ascorbic acid, reference compound]	–	19.8 ± 1.27 µM	1.66 ± 0.050 ^e mol Trolox/mol	–	1.68 ± 0.063 ^b mol Trolox/mol	–	–	–
C[C@H]1O[C@H](O[C@H]2[C@H](O)[C@@H](O)[C@@H](O[C@H]3[C@H](O)[C@@H](O)C(O)O[C@@H]3CO)O[C@@H]2CO)[C@H](O)[C@@H](O)[C@@H]1N[C@H]1C=C(CO)[C@@H](O)[C@H](O)[C@H]1O (some centres unmarked) [Acarbose, reference compound]	–	–	–	–	–	–	–	99.4 ± 0.0%
O=C(/C=C/c1ccc(O)cc1)OCC(O)COC(=O)/C=C/c1ccc(O)cc1 [Compound 7, 1,3-O-di-p-coumaroylglycerol]	–	> 80 µM	1.99 ± 0.11 ^cd mol Trolox/mol	–	–	46.1 ± 2.4%	–	–
O=C(/C=C/c1ccc(O)c(O)c1)OCC(O)COC(=O)/C=C/c1ccc(O)c(O)c1 [Compound 9, 1,3-O-dicaffeoylglycerol]	–	8.82 ± 1.12 µM	2.065 ± 0.050 ^bcd mol Trolox/mol	–	2.42 ± 0.10 ^a mol Trolox/mol	88.8%	–	–
CC(=O)c1c(O)cc(O)cc1OC1OC(CO)C(O)C(O)C1O [Compound 3, 2,4,6-trihydroxy-acetophenone 2-O-β-D-glucoside]	–	> 80 µM	1.97 ± 0.079 ^cd mol Trolox/mol	–	–	< 50%	–	–
